From article PMC3958483, “Fine Specificity and Molecular Competition in SLAM Family Receptor Signalling” (PLoS ONE, 2014)
Non-standard residues stand in square brackets, D forms with d. Residues, ends and D or L forms follow the SMILES beside them. *: point of attachment. Biotin = O=C1N[C@H]2[C@H](CS[C@H]2CCCCC(=O)*)N1; pY = N[C@@H](Cc1ccc(OP(=O)(O)O)cc1)C(=O)O

Experiments:
PLCγ1 (SH2-SH2-SH3) = target: T1, PLCγ1 (SH2-SH2-SH3) (Homo sapiens, UniProt P19174); assay: SPR binding of PLCγ1 SH2-SH2-SH3 to immobilised phosphopeptides; conditions: 37°C, ten two-fold dilutions, top concentration 1 μM, one-site specific binding model, curve shown in Figure 7B
T1 construct: PLCγ1 (Swiss-Prot: P19174, aa 536–863); 6xHis (N); made in house; host or cells: E. coli BL21(DE3)pLysS
T1 sequence (P19174 536-863): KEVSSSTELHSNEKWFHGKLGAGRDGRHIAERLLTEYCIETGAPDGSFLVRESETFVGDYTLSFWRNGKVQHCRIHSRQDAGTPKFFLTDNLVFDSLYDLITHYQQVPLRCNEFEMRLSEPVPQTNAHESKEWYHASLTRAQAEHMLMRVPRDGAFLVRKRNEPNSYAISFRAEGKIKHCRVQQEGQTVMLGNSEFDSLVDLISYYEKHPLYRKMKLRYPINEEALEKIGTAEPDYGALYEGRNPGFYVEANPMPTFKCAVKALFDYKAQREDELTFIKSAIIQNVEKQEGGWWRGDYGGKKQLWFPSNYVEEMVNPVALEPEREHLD
From the text: (§1) Biotinylated EAT-2 was produced by expression of full length human EAT-2 with a C-terminal BirA tag ([…]) in the E coli expression vector pTrcHisA. Constructs encoding the 6xHis-tagged tandem SH2 domains plus the SH3 domains of PLCγ1 (Swiss-Prot: P19174, aa 536–863) and PLCγ2 (Swiss-Prot: P16885, aa 519–838) were generated in pTrcHisA (5′ joining sequence with BglII site underlined: gag atc tcc translates as EIS). The molecular weight (MW) and theoretical extinction coefficients (EC) of recombinant PLCγ1 and PLCγ2 SH2-SH2-SH3 domains were PLCγ1; MW = 42531, EC = 63,830 M^−1 cm^−1 and PLCγ2; MW = 42415, EC = 67,270 M^−1 cm^−1.
(§2) Soluble recombinant proteins were produced in BL21(DE3)pLysS E. coli (Calbiochem) at 37°C in 2TY medium and induced at OD 600 = 0.6 with 0.1 mM IPTG for 4 h or in 2XYT auto-induction (Formedium) medium overnight. Bacterial pellets were resuspended in ∼0.1 volume 10 mM HEPES pH7.4, 150 mM NaCl and used immediately or stored at −20°C in 10 ml aliquots. His-tag mediated protein purification was performed on a Co^2+ or Ni^2+ column by standard protocols. […]
(§3) Measurements of protein-protein affinity were performed on BIAcore 3000 and T200 systems using CM5 or biotin capture chips (GE Healthcare Ltd, UK). […] Equilibrium binding coefficients and dissociation and association rates were calculated using BIAevaluation and/or GraphPad Prism 5.4 software. […]

PLCγ2 (SH2-SH2-SH3) = target: T2, PLCγ2 (SH2-SH2-SH3) (Homo sapiens, UniProt P16885); assay: SPR binding of PLCγ2 SH2-SH2-SH3 to immobilised phosphopeptides; conditions: KD (Figure 7B), 37°C, ten two-fold dilutions, top concentration 1 μM, one-site specific binding model, curve shown in Figure 7B
T2 construct: PLCγ2 (Swiss-Prot: P16885, aa 519–838); 6xHis (N); made in house; host or cells: E. coli BL21(DE3)pLysS
T2 sequence (P16885 519-838): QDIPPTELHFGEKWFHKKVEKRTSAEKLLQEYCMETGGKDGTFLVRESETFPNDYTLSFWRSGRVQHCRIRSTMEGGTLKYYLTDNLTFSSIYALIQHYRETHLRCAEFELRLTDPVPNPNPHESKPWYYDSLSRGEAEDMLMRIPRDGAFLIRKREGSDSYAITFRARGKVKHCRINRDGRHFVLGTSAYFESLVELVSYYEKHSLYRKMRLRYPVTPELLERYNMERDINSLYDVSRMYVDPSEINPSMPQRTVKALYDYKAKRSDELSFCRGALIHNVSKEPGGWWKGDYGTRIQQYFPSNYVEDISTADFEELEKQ
From the text: as §1, §2, §3

SHIP SH2 from SHIP-1 = target: T3, SHIP SH2 from SHIP-1 (Homo sapiens, UniProt Q92835); assay: SPR binding of SHIP SH2 domain to immobilised phosphopeptides; conditions: 37°C, equilibrium binding analysis
T3 construct: the single SH2 domain from SHIP-1; His-tag; made in house; host or cells: E. coli BL21(DE3)pLysS
T3 sequence (Q92835 5-101 limits assumed): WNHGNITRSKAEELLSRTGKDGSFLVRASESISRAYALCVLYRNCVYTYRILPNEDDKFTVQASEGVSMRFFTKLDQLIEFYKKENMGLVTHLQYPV
From the text: as §1
Measurements of protein-protein affinity were performed on BIAcore 3000 and T200 systems using CM5 or biotin capture chips (GE Healthcare Ltd, UK). Streptavidin was coupled to CM5 sensor chips using standard NHS/EDC chemical linkage, followed by immobilization of biotinylated peptides. The levels of peptide immobilized were approximately 25 and 50 response units respectively of single and tandem tyrosine motifs to facilitate saturating binding and limitation of “bridging” [22], [45]. […] Equilibrium binding coefficients and dissociation and association rates were calculated using BIAevaluation and/or GraphPad Prism 5.4 software. […]

[1] = Pull-down with phosphorylated CD244 ITSM1 from NK cell lysates, LC-MS/MS; type: binding; conditions: human NK cell lysates; compared with control phosphopeptide SHIP-1 Y865
Method: For pull-down of associated proteins, streptavidin Sepharose (GE Healthcare) was pre-coated with saturating amounts of peptide or EAT-2. NK92 cells (4×10^8) were treated with 500 μM pervanadate for 15 minutes, then lysed in PBS, 1% Triton X-100, 1 mM sodium orthovanadate in the presence of mammalian protease inhibitor solution (Sigma). Lysates were pre-cleared by centrifugation, followed by incubation with streptavidin Sepharose. Peptide or EAT-2-coated streptavidin beads were incubated with NK92 lysates for 2 hours at 4°C with rotation. Beads were washed once with 15 ml ice cold PBS/1% (v/v) Triton X-100. Bound protein was eluted using 100 mM glycine-HCl pH 2.5.
Protein samples were prepared for mass spectrometry as described previously. Briefly, eluted proteins were spun onto the membranes of Vivacon 500 filters (10,000 MWCO – Sartorius). Membranes were washed once with PBS then proteins were denatured with 8 M urea, reduced with 10 mM DTT in 25 mM ammonium bicarbonate buffer, followed by alkylation with 50 mM iodoacetamide. Proteins were then digested overnight with trypsin. Tryptic peptides were then eluted from the membrane and analyzed on an Ultimate 3000 HPLC-coupled Orbitrap XL mass spectrometer. Proteins were identified by liquid chromatography-coupled tandem mass-spectrometry (LC-MS/MS). Raw data files were converted to mzXML format using ReADW (v. 4.2.1) and submitted to the Central Proteomics Facilities Pipeline for database comparison and peptide identification. Searching against the International Protein Index (IPI) human protein sequence database for protein identification, protein and peptide hits were statistically validated by applying a 1% false discovery rate (FDR) by searching against a concatenated target/decoy database. Datasets were searched with variable peptide modifications for phosphotyrosine, phosphoserine, phosphothreonine, oxidation of methionine and deamination.
Protein identification data were exported into ProteinCenter (v3.8.3013 – Thermo Fisher) for filtering and annotation. Results were filtered to remove any proteins with less than 3 unique peptides, less than 10 percent sequence coverage, or median protein probability scores less than 0.5. To establish sample specificity, any protein with at least 10-fold greater sequence coverage in one sample compared with the other was considered to be specific for that sample.
Similarly, differences in specificity of inhibitory SH2 domain containing proteins for ITSMs are relevant to understanding mechanisms of inhibition by ITSMs. We focused on CD244 ITSMs to establish general paradigms.

binding of SHIP SH2 domain (SHIP SH2 from SHIP-1)	Compound	pull-down by CD244 ITSM1 [1]	further results
–	CC(C)C[C@H](NC(=O)[C@@H](NC(=O)[C@H](CC(=O)O)NC(=O)[C@@H](NC(=O)[C@H](Cc1ccc(OP(=O)(O)O)cc1)NC(=O)[C@H](CC(=O)O)NC(=O)[C@H](CO)NC(=O)[C@H](CC(N)=O)NC(=O)[C@H](CO)NC(=O)[C@H](CC(N)=O)NC(=O)CCCC[C@@H]1SC[C@@H]2NC(=O)N[C@@H]21)C(C)C)C(C)C)C(=O)N1CCC[C@H]1C(=O)O [EAT-2 Y127] (Biotin-NSNSD[pY]VDVLP-OH)	–	Kd (PLCγ1 (SH2-SH2-SH3)): 0.018 µM; Kd (PLCγ2 (SH2-SH2-SH3)): 0.087 µM
preference of SHIP SH2 domain	CC[C@H](C)[C@H](NC(=O)[C@H](CCSC)NC(=O)[C@H](CO)NC(=O)[C@H](Cc1ccc(OP(=O)(O)O)cc1)NC(=O)[C@@H](NC(=O)[C@@H](NC(=O)[C@H](CO)NC(=O)CNC(=O)CNC(=O)CCCC[C@@H]1SC[C@@H]2NC(=O)N[C@@H]21)[C@@H](C)O)[C@@H](C)CC)C(=O)N[C@@H](CCC(N)=O)C(=O)N[C@@H](CO)C(=O)O [CD244 ITSM2]	–	–
–	Growth factor receptor-bound protein 2 (GRB2): SH2 domain containing protein pulled down by CD244 ITSM1	pulled down by the ITSM peptide	–
preference of SHIP SH2 domain	CC[C@H](C)[C@H](NC(=O)[C@H](CC(C)C)NC(=O)[C@H](CO)NC(=O)[C@H](Cc1ccc(OP(=O)(O)O)cc1)NC(=O)[C@H](CC(C)C)NC(=O)[C@@H](NC(=O)[C@H](Cc1ccc(O)cc1)NC(=O)[C@H](C)NC(=O)[C@@H]1CCCN1C(=O)CCCC[C@@H]1SC[C@@H]2NC(=O)N[C@@H]21)[C@@H](C)O)C(=O)N[C@@H](CCC(N)=O)C(=O)N1CCC[C@H]1C(=O)O [CD244 ITSM3] (Biotin-PAYTL[pY]SLIQP-OH; C-terminus assumed)	–	–
–	SHP-1: SH2 domain containing phosphatase	pulled down by the ITSM peptide	–
